Earlier results in paper PMC6272651, “Novel Orally Active Analgesic and Anti-Inflammatory Cyclohexyl-N-Acylhydrazone Derivatives” (Molecules, 2015).

Target: T1, adenosine receptor, subtype A2A (Rattus norvegicus, UniProt P30543)
T1 construct: gene Adora2a
Experiment: radioligand displacement of [3H]CGS21680 ([…]) from rat A2A receptors
Conditions: read-out: Binding A2a / % of inhibition ^a

T1 sequence (P30543 whole entry): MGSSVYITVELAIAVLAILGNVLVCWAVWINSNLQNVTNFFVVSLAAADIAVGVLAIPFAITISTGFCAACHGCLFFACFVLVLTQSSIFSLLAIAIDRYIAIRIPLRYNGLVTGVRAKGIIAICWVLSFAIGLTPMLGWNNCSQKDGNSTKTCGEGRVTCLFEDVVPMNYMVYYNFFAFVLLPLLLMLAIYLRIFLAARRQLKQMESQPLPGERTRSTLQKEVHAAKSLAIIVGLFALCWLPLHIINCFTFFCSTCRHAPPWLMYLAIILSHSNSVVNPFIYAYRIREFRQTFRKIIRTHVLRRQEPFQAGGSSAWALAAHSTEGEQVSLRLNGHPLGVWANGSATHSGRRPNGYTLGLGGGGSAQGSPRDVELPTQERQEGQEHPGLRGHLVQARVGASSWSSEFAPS

Ki: 8.2 µM
SMILES: O=C(N/N=C/c1cccs1)c1ccc2c(c1)OCO2 [compound 8, (E)-N'-((thiophen-2-yl)methylene)benzo[d][1,3]dioxole-5-carbohydrazide]
